# From article PMC7377239, “Cardiovascular Effects of Polychlorinated Biphenyls and Their Major Metabolites” (Environmental Health Perspectives, 2020)
# Where two headings read alike, the source gives them in different places.
# Assays:
# HUVECs = assay: High-content imaging cytotoxicity in HUVECs, 24 h; type: cell-based, human; conditions: Homo sapiens, HUVEC, 24 h, HUVECs; for viability at 0.01 µM / activity at 0.01 µM: concentration 0.01 µM; for viability at 0.01 µM / activity at 0.01 µM / viability at 0.1 µM / activity at 0.1 µM / viability at 1 µM / activity at 1 µM / viability at 10 µM / activity at 10 µM / viability at 100 µM / activity at 100 µM: 0.00 µM = 100.00; for viability at 0.1 µM / activity at 0.1 µM: concentration 0.10 µM; for viability at 1 µM / activity at 1 µM: concentration 1.00 µM; for viability at 10 µM / activity at 10 µM: concentration 10.00 µM; for viability at 100 µM / activity at 100 µM: concentration 100.00 µM; for minimal effective concentration: MAX 100.00
# In short: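 Point-of-departure values come from four-parameter logistic fits of vehicle-normalized (0.5% DMSO) imaging readouts, cutoff one SD of vehicle means, 100μM where no concentration–response. Cells: HUVEC monolayers, passages 1–5, treated 24 h at 37°C, 5% CO2, then Hoechst 33342/MitoTracker Orange/calcein AM stained, imaged at 10×.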
# [1] = test system: iCell cardiomyocytes (human iPSC-derived cardiomyocytes); assay: High-content imaging of cytotoxicity and mitochondrial integrity in iPSC-CMs; type: cell-based; conditions: Homo sapiens, Cardiomyocyte; for viability at 0.01 µM / activity at 0.01 µM / viability at 0.1 µM / activity at 0.1 µM / viability at 1 µM / activity at 1 µM / viability at 10 µM / activity at 10 µM / viability at 100 µM / activity at 100 µM: 0.00 µM = 100.00; for viability at 0.1 µM / activity at 0.1 µM: 0.10 µM
# In short: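 Cardiomyocytes grown on gelatinized 384-well plates received fresh medium on the experiment day and were then exposed to chemicals at 0.01–100μM. Nuclei and mitochondria were labeled with Hoechst 33342 and MitoTracker™ Orange, then fixed, and imaged on an ImageXpress® Micro Confocal system. Four-parameter logistic concentration–response fits in R, with a one-standard-deviation vehicle cutoff, gave point-of-departure values.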
# [2] = 24 hr, read-out: huvec.cyto.24hr
# [3] = 24 hr, read-out: huvec.mito.24hr
# [4] = 24 hr, read-out: huvec.mitoint.24hr
# [5] = 24 hr, read-out: huvec.nma.24hr
# [6] = 24 hrs, read-out: huvec.tc.24hrs
# [7] = 1.5 h, 90min, read-out: cm.cam.90min
# [8] = 1.5 h, 90min, read-out: cm.mii.90min
# [9] = 1.5 h, 90min, read-out: cm.mito.90min
# [10] = 1.5 h, 90min, read-out: cm.tc.90min
# [11] = 24 h, 24hrs, read-out: cm.cam.24hrs
# [12] = 24 h, 24hrs, read-out: cm.mii.24hrs
# [13] = 24 h, 24hrs, read-out: cm.mito.24hrs
# [14] = 24 h, 24hrs, read-out: cm.tc.24hrs
compound,measurement,setting,value
Clc1ccc(Cl)c(-c2c(Cl)ccc(Cl)c2Cl)c1 [PCB95],viability at 0.01 µM,HUVECs; [2],81%
same,activity at 0.01 µM,HUVECs; [3],79.4%
same,activity at 0.01 µM,HUVECs; [4],106%
same,activity at 0.01 µM,HUVECs; [5],97.4%
same,viability at 0.1 µM,HUVECs; [2],85.5%
same,activity at 0.1 µM,HUVECs; [3],84.2%
same,activity at 0.1 µM,HUVECs; [4],109%
same,activity at 0.1 µM,HUVECs; [5],98.6%
same,viability at 1 µM,HUVECs; [2],94.8%
same,activity at 1 µM,HUVECs; [3],93.4%
same,activity at 1 µM,HUVECs; [4],106%
same,activity at 1 µM,HUVECs; [5],98.7%
same,viability at 10 µM,HUVECs; [2],70.3%
same,activity at 10 µM,HUVECs; [3],63.8%
same,activity at 10 µM,HUVECs; [4],76.7%
same,activity at 10 µM,HUVECs; [5],86.4%
same,viability at 100 µM,HUVECs; [2],64.5%
same,activity at 100 µM,HUVECs; [3],50.7%
same,activity at 100 µM,HUVECs; [4],18.7%
same,activity at 100 µM,HUVECs; [5],56.5%
same,minimal effective concentration,"HUVECs; 24 hr, read-out: huvec.cyto.24hr POD",0.01 µM
same,minimal effective concentration,"HUVECs; 24 hr, read-out: huvec.mito.24hr POD",0.022 µM
same,minimal effective concentration,"HUVECs; 24 hr, read-out: huvec.mitoint.24hr POD",7.41 µM
same,minimal effective concentration,"HUVECs; 24 hr, read-out: huvec.nma.24hr POD",1.93 µM
same,viability at 0.01 µM,HUVECs; [6],81%
same,viability at 0.1 µM,HUVECs; [6],85.5%
same,viability at 1 µM,HUVECs; [6],94.8%
same,viability at 10 µM,HUVECs; [6],70.3%
same,viability at 100 µM,HUVECs; [6],64.5%
same,minimal effective concentration,"HUVECs; 24 hrs, read-out: huvec.tc.24hrs POD",0.01 µM
same,viability at 0.01 µM,[1]; [7],98.2%
same,activity at 0.01 µM,[1]; [8],114%
same,activity at 0.01 µM,[1]; [9],97.8%
same,viability at 0.01 µM,[1]; [10],97.9%
same,viability at 0.1 µM,[1]; [7],95.8%
same,activity at 0.1 µM,[1]; [8],100%
same,activity at 0.1 µM,[1]; [9],95.4%
same,viability at 0.1 µM,[1]; [10],95.4%
same,viability at 1 µM,[1]; [7],93.8%
same,activity at 1 µM,[1]; [8],109%
same,activity at 1 µM,[1]; [9],93.2%
same,viability at 1 µM,[1]; [10],93.1%
same,viability at 10 µM,[1]; [7],107%
same,activity at 10 µM,[1]; [8],110%
same,activity at 10 µM,[1]; [9],107%
same,viability at 10 µM,[1]; [10],107%
same,viability at 100 µM,[1]; [7],0.65%
same,activity at 100 µM,[1]; [8],92.8%
same,activity at 100 µM,[1]; [9],0.97%
same,viability at 100 µM,[1]; [10],1.11%
same,minimal effective concentration,"[1]; 1.5 h, 90min, read-out: cm.cam.90min POD",36.6 µM
same,minimal effective concentration,"[1]; 1.5 h, 90min, read-out: cm.mii.90min POD",100 µM
same,minimal effective concentration,"[1]; 1.5 h, 90min, read-out: cm.mito.90min POD",39.6 µM
same,minimal effective concentration,"[1]; 1.5 h, 90min, read-out: cm.tc.90min POD",38.7 µM
same,viability at 0.01 µM,[1]; [11],97.2%
same,activity at 0.01 µM,[1]; [12],90.3%
same,activity at 0.01 µM,[1]; [13],95.7%
same,viability at 0.01 µM,[1]; [14],97.3%
same,viability at 0.1 µM,[1]; [11],98.9%
same,activity at 0.1 µM,[1]; [12],99%
same,activity at 0.1 µM,[1]; [13],99%
same,viability at 0.1 µM,[1]; [14],99%
same,viability at 1 µM,[1]; [11],99.8%
same,activity at 1 µM,[1]; [12],100%
same,activity at 1 µM,[1]; [13],97.7%
same,viability at 1 µM,[1]; [14],98.7%
same,viability at 10 µM,[1]; [11],93.8%
same,activity at 10 µM,[1]; [12],95.1%
same,activity at 10 µM,[1]; [13],92.7%
same,viability at 10 µM,[1]; [14],93.5%
same,viability at 100 µM,[1]; [11],1.96%
same,activity at 100 µM,[1]; [12],34.3%
same,activity at 100 µM,[1]; [13],1.73%
same,viability at 100 µM,[1]; [14],2.9%
same,minimal effective concentration,"[1]; 24 h, read-out: cm.cam.24hrs POD",8.98 µM
same,minimal effective concentration,"[1]; 24 h, read-out: cm.mii.24hrs POD",22.2 µM
same,minimal effective concentration,"[1]; 24 h, read-out: cm.mito.24hrs POD",8.96 µM
same,minimal effective concentration,"[1]; 24 h, read-out: cm.tc.24hrs POD",8.75 µM
